Laboratory results: US10398142B2, “Polycationic amphiphiles as antimicrobial agents” (priority 2013, dated 2019)
Read-outs that look alike come from different tables or passages of the source.

What was measured:
[1] = test system: Enterococcus faecalis (OG1RF); assay: Minimum inhibitory concentration (MIC), broth microdilution; format: cell-based; details: read-out: MIC E. faecalis
Method: (§1) The term “minimum inhibitory concentration (MIC)” means the lowest concentration of an antimicrobial agent that will inhibit the visible growth of a microorganism after overnight incubation. MIC values against bacteria, for example, the Gram-positive Staphylococcus aureus and Enterococcus faecalis and the Gram-negative Escherichia coli and Pseudomonas aeruginosa were determined by standard methods.
(§2) With nearly three-dozen amphiphiles varying in structure and cationic nature synthesized, minimum inhibitory concentration (MIC) values against the Gram-positive Staphylococcus aureus and Enterococcus faecalis and the Gram-negative Escherichia coli and Pseudomonas aeruginosa were determined by standard methods. […] The commercially available antibacterial agent benzalkonium chloride (benzyldimethyldodecylammonium chloride, Bn,12) was tested for comparison. The broth microdilution for determining MIC values was performed as previously reported.
(§3) Different biological assays were performed. […] All cultures, with the exception of E. faecalis, were grown with shaking at 250 rpm.
(§4) Minimum inhibitory concentration (MIC) values against bacteria were measured using standard method. Compounds were serially diluted two-fold from an aqueous stock solution to yield twelve test concentrations. Overnight S. aureus, E. faecalis, E. coli, P. aeruginosa, CA-MRSA, and HA-MRSA cultures diluted to ca. 10^6 cfu/mL in Mueller-Hinton media and 100 μL were inoculated into each well of a U-bottom 96-well plate (BD Biosciences, BD351177) containing 100 μL of compound solution. Plates were incubated statically at 37° C. for 72 hours upon which time wells were evaluated visually for bacterial growth. The MIC was determined as the lowest concentration of compound resulting in no bacterial growth visible to the naked eye, based on the majority of three independent experiments. Positive and negative aqueous and media controls were conducted for each trial.

[2] = test system: Pseudomonas aeruginosa (PAO1); assay: as above; format: cell-based
Method: as §1, §2, §3, §4

[3] = test system: Escherichia coli (MC4100); assay: as above; format: cell-based; details: read-out: MIC E. coli
Method: as §1, §2, §3, §4

[4] = test system: Staphylococcus aureus MSSA (SH1000); assay: as above; format: cell-based; details: read-out: MIC S. aureus
Method: as §1, §2, §3, §4

E. faecalis biofilms = assay: Minimum biofilm eradication concentration (MBEC), regrowth assay; format: cell-based, Enterococcus faecalis; details: for MBEC E. faecalis: Table 2, pre-established biofilm, ± values varied between 50 and 100 μM for the six trials; for eradication of E. faecalis biofilms (in words): at the concentrations tested
Text: (§5) A regrowth assay was used to establish the MBEC of a compound to evaluate the antibiofilm activity. See also H. Ceri, M. Olson, D. Morck, D. Storey, R. Read, A. Buret, B. Olson, Methods Enzymol. 2001, 337, 377.
(§6) Encouraged by the potency of the QACs against planktonic bacterial cells, the inventors then evaluated the efficacy of compound (12,2,12) against Staphylococcus aureus and Enterococcus faecalis biofilms. […] To both accurately evaluate the antibiofilm activity, a regrowth assay was utilized to establish the minimum biofilm eradication concentration (MBEC) of each compound.
(§7) Different biological assays were performed. For all biological assays, laboratory strains of methicillin-susceptible Staphylococcus aureus MSSA (SH1000), Enterococcus faecalis (OG1RF), Escherichia coli (MC4100), Pseudomonas aeruginosa (PAO1), community-acquired methicillin-resistant Staphylococcus aureus CA-MRSA (USA300-0114), and hospital-acquired methicillin-resistant Staphylococcus aureus HA-MRSA (ATCC 33591) were grown at 37° C. overnight from freezer stocks in 10 mL of the media indicated for each assay. All cultures, with the exception of E. faecalis, were grown with shaking at 250 rpm.
(§8) Minimum biofilm eradication concentration (MBEC) was also measured. To each well of a flat-bottomed 96-well plate (Corning 3370), 8 μL of overnight bacterial culture was brought to a volume of 200 μL with fresh media (BHI for S. aureus and MRSA, Todd Hewitt (TH) for E. faecalis). Plates were incubated statically for 24 hours at 37° C. to establish biofilms. After 24 hours, the wells were carefully emptied by inverting the plate and gently shaking. A pre-mixed solution of media and aqueous compound stock solution was added to each well and plates were incubated at 37° C. 16 hours after pre-established biofilms were treated with compound, the media from each well was removed, biofilms were washed three times with 200 μL PBS to remove planktonic cells, and biofilms were incubated overnight at 37° C. in 200 μL of fresh media to allow any viable cells to continue growing. The wells were then vigorously pipetted to resuspend the biofilm cells and the OD at 595 nm was measured using a plate reader (POLARstar Omega, BMG Labtech). Biofilms reaching a final OD of less than 0.1 were considered eradicated and the lowest concentration of antibiotic corresponded to the MBEC. Four replicates were completed for each concentration of compound as well as positive and negative controls.

[5] = test system: S. aureus (MSSA, SH1000) biofilms; assay: as above; format: cell-based, Staphylococcus aureus; details: for MBEC S. aureus: Table 2, pre-established biofilm, ± values varied between 50 and 100 μM for the six trials; for eradication of S. aureus biofilms (in words): at the concentrations tested
Text: as §5, §6, §7, §8

[6] = Table 3, read-out: MIC P. aeruginosa
[7] = Table 1, read-out: MIC P. aeruginosa
[8] = Pseudomonas aeruginosa, PAO1, read-out: MIC P. aeruginosa

Row | SMILES | MIC ([1]; Table 3) | MIC [2, 6] | MIC ([3]; Table 3) | MIC ([4]; Table 3) | further results
1 | CCCCCCCCCCCCCC[N+](C)(C)CCN(C)CCN(C)CC[N+](C)(C)CCCCCCCCCCCC.[Br-].[Br-] [N4-14,0,0, 12] | 1 µM | 8 µM | 2 µM | 1 µM | 
2 | C[N+](C)(C)CCCCC[N+](C)(C)C [1,5,1] |  |  |  |  | MBEC E. faecalis (E. faecalis biofilms): >200 µM; eradication of E. faecalis biofilms (in words) (E. faecalis biofilms): unable to eradicate biofilms; MIC ([1]; Table 1): >500 µM; MIC [2, 7]: >500 µM; MIC ([3]; Table 1): >500 µM; MIC ([4]; Table 1): >500 µM; MBEC S. aureus [5]: >200 µM; eradication of S. aureus biofilms (in words) [5]: unable to eradicate biofilms
3 | NCCCNCCCN [Norspermidine, reference compound] |  |  |  |  | MBEC E. faecalis (E. faecalis biofilms): >200 µM; MIC ([1]; Enterococcus faecalis): > 500 µM; MIC [2, 8]: > 500 µM; MIC ([3]; Escherichia coli): > 500 µM; MIC ([4]; Staphylococcus aureus, MSSA): > 500 µM; MBEC S. aureus [5]: >200 µM
4 | CCCCCCCCCCCCCC[N+](C)(C)CCN(C)CC[N+](C)(C)CCCCCCCCCCCCCC.[Br-].[Br-] [14, 2, 0, 2, 14] | 1 µM | 16 µM | 4 µM | 2 µM | 
5 | C[N+](C)(C)CC[N+](C)(C)C [1,2,1] |  |  |  |  | MBEC E. faecalis (E. faecalis biofilms): >200 µM; eradication of E. faecalis biofilms (in words) (E. faecalis biofilms): unable to eradicate biofilms; MIC ([1]; Table 1): >500 µM; MIC [2, 7]: >500 µM; MIC ([3]; Table 1): >500 µM; MIC ([4]; Table 1): >500 µM; MBEC S. aureus [5]: >200 µM; eradication of S. aureus biofilms (in words) [5]: unable to eradicate biofilms
6 | CCCCCCCCCCC[n+]1ccc(-c2cc[n+](CCCCCCCCCCC)cc2)cc1 [PQ-11,11] |  |  |  |  | MBEC E. faecalis (E. faecalis biofilms): 50 µM; MIC ([1]; Enterococcus faecalis): 1 µM; MIC [2, 8]: 4 µM; MIC ([3]; Escherichia coli): 1 µM; MIC ([4]; Staphylococcus aureus, MSSA): 1 µM; MBEC S. aureus [5]: 50 µM
7 | C=CC[N+](C)(CC[N+](C)(C)CCCCCCCCCC)CC[N+](C)(C)CCCCCCCCCC.[Br-].[Br-].[Br-] [10, 2, 3A, 2, 10] | 4 µM | 63 µM | 2 µM | 2 µM | 
8 | CCCCCCCCCCCCCC[N+](C)(C)CCN(C)CCN(C)CC[N+](C)(C)CCCCCCCCCCCCCC.[Br-].[Br-] [N4-14,0,0, 14] | 1 µM | 16 µM | 2 µM | 2 µM | 
9 | CCCCCCCCCCCC[N+](C)(C)CCCCCCCCCCCC.[Br-] [12,12] |  |  |  |  | MBEC E. faecalis (E. faecalis biofilms): 200 µM; MIC ([1]; Table 1): 1 µM; MIC [2, 7]: 32 µM; MIC ([3]; Table 1): 8 µM; MIC ([4]; Table 1): 1 µM; MBEC S. aureus [5]: >200 µM
10 | CCCCCCCCCCCC[N+](C)(C)CCN(C)CCN(C)CCN(C)C.[Br-] [N4-12,0,0, 0] | 8 µM | 32 µM | 8 µM | 8 µM | 
11 | CCCCCCCCCCCCCC[N+](C)(C)CCN(C)CCN(C)CCN(C)C.[Br-] [N4-14,0,0, 0] | 16 µM | 125 µM | 32 µM | 16 µM | 
12 | CCCCCCCCCCC[N+](C)(C)CC[N+](C)(C)CC[N+](C)(C)CCCCCCCCCCC.[Br-].[Br-].[I-] [11, 2, 1, 2, 11] | 2 µM | 8 µM | 4 µM | 2 µM | 
13 | CCCCCCCCCCC[N+](C)(C)CCN(C)CC[N+](C)(C)CCCCCCCCCCC.[Br-].[Br-] [11, 2, 0, 2, 11] | 2 µM | 8 µM | 2 µM | 2 µM | 
14 | CCCCCCCCCCCCCC[N+](C)(C)CC[N+](C)(C)CC[N+](C)(C)CCCCCCCCCCCCCC.[Br-].[Br-].[I-] [14, 2, 1, 2, 14] | 1 µM | 8 µM | 2 µM | 1 µM | 
15 | C=CC[N+](C)(CC[N+](C)(C)CCCCCCCCCCCCCCCC)CC[N+](C)(C)CCCCCCCCCCCCCCCC.[Br-].[Br-].[Br-] [16, 2, 3A, 2, 16] | 4 µM | 16 µM | 8 µM | 4 µM | 
16 | C=CC[N+](C)(CC[N+](C)(C)CCCCCCCCCCCCCC)CC[N+](C)(C)CCCCCCCCCCCCCC.[Br-].[Br-].[Br-] [14, 2, 3A, 2, 14] | 2 µM | 8 µM | 2 µM | 2 µM | 
17 | CCCCCCCCCC[N+](C)(C)CCN(C)CC[N+](C)(C)CCCCCCCCCC.[Br-].[Br-] [10, 2, 0, 2, 10] | 8 µM | 63 µM | 8 µM | 2 µM | 
18 | CCCCCCCCCC[N+](C)(C)CCCCC[N+](C)(C)CCCCCCCCCC.[Br-].[Br-] [10, 5, 10] | 4 µM | 63 µM | 8 µM | 2 µM | 
19 | CCCCCCCCCCCC[N+](C)(C)CCCCCCC[N+](C)(C)CCCCCCCCCCCC.[Br-].[Br-] [12, 7, 12] | 1 µM | 8 µM | 2 µM | 1 µM | 
20 | CCCCCCCCCCCCCC[N+](C)(C)CCCCC[N+](C)(C)CCCCCCCCCCCCCC.[Br-].[Br-] [14, 5, 14] | 1 µM | 16 µM | 4 µM | 1 µM | 
21 | CCCCCCCCCCCCCCCC[N+](C)(C)CCN(C)CC[N+](C)(C)CCCCCCCCCCCCCCCC.[Br-].[Br-] [16, 2, 0, 2, 16] | 2 µM | 32 µM | 16 µM | 4 µM | 
22 | C=CC[N+](C)(CC[N+](C)(C)CCCCCCCCCCC)CC[N+](C)(C)CCCCCCCCCCC.[Br-].[Br-].[Br-] [11, 2, 3A, 2, 11] | 2 µM | 16 µM | 2 µM | 1 µM | 
23 | CCCCCCCCCC[N+](C)(C)CC[N+](C)(C)CC[N+](C)(C)CCCCCCCCCC.[Br-].[Br-].[I-] [10, 2, 1, 2, 10] | 8 µM | 63 µM | 8 µM | 2 µM | 
